The text below walks through data of patent publication US11098040B2, “Compounds and methods of use” (Ferro Therapeutics, Inc., priority 2018, dated 2021).

pIC50: −log10 of the molar value. Like-named read-outs stand apart in the source and are kept apart here. Where only a bound is given, the exact number is not on record here.

One may read the IC50 as the concentration that gives 50% inhibition. As a reminder, the pIC50 is −log10 of the IC50, conventionally taken in molar units.

One assay relates to 786-O. The assay can be described thus: Cell proliferation (Alamar Blue) assay, 786-O renal cell carcinoma, with/without ferrostatin. The format is cell-based. Particulars: Homo sapiens; for IC50: 786-0, 24 h, Alamar Blue, 24 h; for pIC50: 786-0, Cell Line 786-O, read-out: IC50. The procedure, abridged: (§1)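 Cells seeded at 5000/well, 16-24 h, then exposed 24 h at 37° C to compound, 10-0.0005 μM in 3-fold dilutions, 1% DMSO final. Alamar Blue fluorescence (ex 540/em 590 nm) read after 1.5 h; IC50 from variable-slope sigmoidal fit.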
Background: Alamar Blue is a resazurin reagent that responds to reducing activity.

A further assay relates to SJSA-1. The assay can be described thus: Cell proliferation (Alamar Blue) assay, SJSA-1 osteosarcoma, with/without ferrostatin. The format is cell-based, human. Particulars: Homo sapiens; for IC50: SJSA-1, 24 h, Alamar Blue, 24 h; for pIC50: SJSA-1, Cell Line SJSA-1, read-out: IC50. The procedure, abridged: as §1
The next assay has as its system A431. The assay can be described thus: Cell proliferation (Alamar Blue) assay, A431. The format is cell-based. Particulars: Homo sapiens, A-431; Cell Line A431. Here is the method:
Cells (SJSA-1, 786-O and A431) were seeded (5000 cells/100 μL/well) in 96-well tissue culture plate and incubated at 37° C./5% CO2 for 16-24 hours. The cells were then treated with compounds (25 μL of 5×). The compound concentrations were 10-0.0005 μM prepared in 3-fold serial dilutions with final DMSO concentration of 1%. The plates were then incubated for 24 h at 37° C./5% CO2 in a moist environment. Then Alamar Blue™ reagent (final concentration 1×-12.5 μL) was added to each well and incubated for 1.5 hours at 37° C./5% CO2. The plates were read on fluorescence reader at 540 nm excitation and 590 nm emission wavelengths. The IC50 values were subsequently determined using a sigmoidal dose-response curve (variable slope) in GraphPad Prism® 5 software.
The cell proliferation assays for the compounds shown Table 25 was performed according to the protocols described herein, including Examples 4 and 6.

A further assay concerns MiaPaCa-2. Nature of the assay: Cell viability assay (CellTiter Glo), pancreatic carcinoma MiaPaCa-2. Particulars: Homo sapiens, MIA PaCa-2; pancreatic carcinoma, 96 hours, CellTiter Glo; read-out: IC50 MiaPaCa-2. The format is cell-based. The procedure:
(§2) Cell viability assay was performed to assess the potency of the compounds in human cancer cell lines KP4 (pancreatic ductal adenocarcinoma), MiaPaCa-2 (pancreatic carcinoma), AsPC-1 (pancreatic adenocarcinoma, ascites), 143B (osteosarcoma), and SJSA-1 (osteosarcoma). Selected compounds were also assayed in a human breast epithelial cell line MCF-10A, a nontumorigenic cell line as a control to assess differential activity. Cells at a density of 500-5,000 cells/well were seeded in 96-well plates and incubated at 37° C. overnight. A series of 9 different concentrations of compound stocks (500×) were created by 3-fold serial dilution in DMSO. These compounds were further diluted in culture media and then added to cells so that the final DMSO concentration was equal to 0.25% or less. After 96 hours of incubation, 50 μL of CellTiter Glo reagent (Promega) was added to each well and luminescence was measured after 10 minutes using EnVision (PerkinElmer). Compounds titrated from top concentration of up to 30 μM. The select compounds were tested initially from 30 μM as the top concentration in duplicates (range of 4.6 nM-30 μM). […] Luminescence from cells treated with DMSO alone was set as Max and % of inhibition was calculated as follows: Inhibition %=(Max-Sample value)/Max*100. Data was analyzed using XL-fit software (ID Business Solutions Ltd.). IC50, relative IC50, or % of top inhibition was calculated.
The results of the assay in the pancreatic cell lines are given in Table 15a for PANC1, Table 15b for MiaPaCa-2, and Table 15c for AsPC-1.

The subject of the next assay is MCF-10A. Nature of the assay: Cell viability assay (CellTiter Glo), non-tumorigenic breast epithelial cell line MCF-10A. Particulars: Homo sapiens, 96 hours. In kind it is cell-based. The procedure:
as §2
Paclitaxel was used as the positive control for cytotoxicity.

For the next assay, the system named is A549. Nature of the assay: Cell viability assay, A549 cells. The format is cell-based. Particulars: Homo sapiens, A549, A549, read-out: IC50 for A549. The procedure, abridged: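 Growth of A549 cells was assessed with a cell viability assay. Cells were plated at 1,000-10,000 cells/well in 96-well plates and incubated overnight at 37° C. Nine-point 3-fold DMSO dilutions, starting from 30 μM and run in duplicate, were diluted into media (final DMSO 0.25% or less). After 96 hours, CellTiter Glo luminescence was read, inhibition was calculated against DMSO controls, and IC50 was fitted in XL-fit.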

Setting [1] is: 2 μM ferrostatin, read-out: 786-O (IC50, μM) 2 μM Ferrostatin.
Setting [2] is: without ferrostatin, read-out: 786-O (IC50, μM) Without Ferrostatin.
Where [3] appears, read: 2 μM ferrostatin, read-out: SJSA-1 (IC50, μM) 2 μM Ferrostatin.
Setting [4] is: without ferrostatin, read-out: SJSA-1 (IC50, μM) Without Ferrostatin.

As to `COc1ccc2[nH]c3c(c2c1)C[C@H](C)N(C(=O)CCl)[C@H]3c1ccc(S(=O)(=O)NC2CC2)cc1F` [Compound 173, 4-((3S)-2-(2-chloroacetyl)-6-methoxy-3-methyl-2,3,4,9-tetrahydro-1H-pyrido[3,4-b]indol-1-yl)-N-cyclopropyl-3-fluorobenzenesulfonamide], the IC50 in the assay with 786-O (setting [1]) is 3.95 µM; with 786-O (setting [2]), 0.023 µM; in the assay with SJSA-1 (setting [3]), 3.98 µM; with SJSA-1 (setting [4]) it was 0.034 µM. For the same compound, the pIC50 was 7.64 in the assay on 786-O, 7.47 in the assay with SJSA-1 and 5.44 in the assay on A431.
For `C[C@H]1Cc2c([nH]c3ccccc23)[C@H](c2ccc(N3CCOCC3)nc2)N1C(=O)CCl` [Example 220], the pIC50 was 7.03 with SJSA-1 and 5.00 in the assay with A431.
With `CN(C)C(=O)[C@H]1Cc2c([nH]c3ccccc23)[C@H](c2ccc(C(=O)N(CCC(=O)OC(C)(C)C)C(C)(C)C)cc2)N1C(=O)CCl` [Example 54], the negative logarithm of the IC50 (pIC50) in the assay on MiaPaCa-2 was 6.66; in the assay on MCF-10A, 6.25; in the assay with A549 (unit printed as PM) it was 6.10.
As to `C[C@H]1Cc2c([nH]c3ccccc23)[C@H](c2ccc(S(=O)(=O)N(C)C3CC3)cc2F)N1C(=O)CCl` [Compound 170], the 50% inhibitory concentration (IC50) was found to be 8.09 µM in the assay on 786-O (setting [1]), 0.058 µM in the assay with 786-O (setting [2]), 9.11 µM with SJSA-1 (setting [3]) and 0.062 µM in the assay on SJSA-1 (setting [4]). The pIC50 was 7.24 in the assay on 786-O, 7.21 with SJSA-1 and 5.38 in the assay on A431.
As to `COC[C@H]1Cc2c([nH]c3ccccc23)[C@H](c2ccc(N3CCOCC3)cc2)N1C(=O)CCl` [Compound 232], the pIC50 in the assay on 786-O was 7.60; with SJSA-1 it was 7.35; in the assay on A431 it was less than 5.00.
On to `C[C@H]1Cc2c([nH]c3ccccc23)[C@@H](c2cnn(C3CCOCC3)c2)N1C(=O)CCl` [Example 159], for which the pIC50 was less than 5.00 with SJSA-1 and 5.15 in the assay with A431.
Consider `C[C@H]1Cc2c([nH]c3ccc(F)cc23)[C@H](c2ccc(S(=O)(=O)NC3CC3)cc2F)N1C(=O)CCl` (stereo in doubt) [Compound 164, 4-((1S,3S)-2-(2-chloroacetyl)-6-fluoro-3-methyl-2,3,4,9-tetrahydro-1H-pyrido[3,4-b]indol-1-yl)-N-cyclopropyl-3-fluorobenzenesulfonamide], for which the half-inhibitory concentration (IC50) amounted to 6.34 µM in the assay with 786-O (setting [1]), 0.023 µM in the assay on 786-O (setting [2]), 7.06 µM with SJSA-1 (setting [3]) and 0.013 µM in the assay on SJSA-1 (setting [4]). The negative logarithm of the IC50 (pIC50) is 7.64 in the assay on 786-O, 7.89 in the assay with SJSA-1 and 5.00 in the assay on A431.
`C#CC(=O)N1[C@@H](c2ccc(S(=O)(=O)NC3CC3)cc2F)c2[nH]c3ccc(OC)cc3c2C[C@@H]1C` [Compound 165, N-cyclopropyl-3-fluoro-4-((1S,3S)-6-methoxy-3-methyl-2-propioloyl-2,3,4,9-tetrahydro-1H-pyrido[3,4-b]indol-1-yl)benzenesulfonamide]: the IC50 with 786-O (setting [1]) was found to be 4.79 µM; in the assay on 786-O (setting [2]), 0.047 µM; in the assay with SJSA-1 (setting [3]) it was 3.77 µM; in the assay with SJSA-1 (setting [4]) it was 0.119 µM. Further, the figures for the pIC50 in the assay with 786-O, in the assay on SJSA-1 and in the assay on A431 were 7.33, 6.92 and 5.46, respectively.
Take `C[C@H]1Cc2c([nH]c3ccccc23)[C@H](c2ccc(C(=O)NC3CCC3)nc2)N1C(=O)CCl` [Compound 214, 5-((1S,3S)-2-(2-chloroacetyl)-3-methyl-2,3,4,9-tetrahydro-1H-pyrido[3,4-b]indol-1-yl)-N-cyclobutylpicolinamide]: the IC50 in the assay with 786-O (setting [1]) came out at 4.72 µM; with 786-O (setting [2]), 0.019 µM; in the assay with SJSA-1 (setting [3]) it was 4.15 µM; in the assay on SJSA-1 (setting [4]) it was 0.03 µM. The pIC50 in the assay with 786-O is 7.72; in the assay with SJSA-1, 7.52; with A431, 5.80.
Turning to `C#CCOc1ccc2[nH]c3c(c2c1)C[C@H](C(=O)OC)N(C(=O)CCl)[C@H]3c1ccc(C(=O)NC23CC4CC(CC(C4)C2)C3)cc1` [Example 211], the negative-log IC50 (pIC50) is 7.96 in the assay with SJSA-1 and 5.56 in the assay on A431.
`C[C@H]1Cc2c([nH]c3ccccc23)[C@H](c2ccc(CN3CCOCC3)cc2)N1C(=O)CCl` [Compound 132]: the pIC50 in the assay with 786-O was 5.42; in the assay on SJSA-1, 5.17; with A431, 5.22.
For the compound `C#CC(=O)N1[C@@H](c2ccc(S(=O)(=O)NC3CC3)cc2F)c2[nH]c3ccc(Cl)cc3c2C[C@@H]1C` [Compound 151], the values for the pIC50 in the assay on 786-O, in the assay on SJSA-1 and with A431 were 7.74, 7.43 and 5.28, respectively.
As to `C#CCOc1ccc([C@H]2c3[nH]c4ccccc4c3C[C@H](C(=O)OC)N2C(=O)CCl)cc1` [Compound 147, methyl (1S,3R)-2-(2-chloroacetyl)-1-(4-(prop-2-yn-1-yloxy)phenyl)-2,3,4,9-tetrahydro-1H-pyrido[3,4-b]indole-3-carboxylate], the pIC50 is 7.31 with 786-O, 6.80 in the assay on SJSA-1 and less than 5.00 in the assay with A431.
As to `CC1CN(c2ccc([C@H]3c4[nH]c5ccccc5c4C[C@H](C)N3C(=O)CCl)cc2)CC(C)O1` (some centres unmarked) [Example 212], the negative-log IC50 (pIC50) in the assay on 786-O was 8.10; with A431 it was 5.60.
For the compound `C[C@H]1Cc2c([nH]c3ccccc23)[C@H](c2ccncc2)N1C(=O)CCl` [Example 171], the negative-log IC50 (pIC50) is 6.60 in the assay on SJSA-1 and 5.09 in the assay with A431.
As to `C[C@H]1Cc2c([nH]c3ccccc23)[C@@H](c2ccc(N3CCOCC3)nc2)N1C(=O)CCl` [Compound 157], the negative-log IC50 (pIC50) in the assay on 786-O was less than 5.00; with SJSA-1, less than 5.00; in the assay with A431, 5.70.
With `CC1CN(c2ccc([C@@H]3c4[nH]c5ccccc5c4C[C@H](C)N3C(=O)CCl)cc2)CCO1` (some centres unmarked) [Example 127], the figures for the negative-log IC50 (pIC50) in the assay with SJSA-1 and in the assay on A431 were less than 5.00 and 5.55, respectively.
The like results for `C[C@H]1Cc2c([nH]c3ccccc23)C(c2ccc(S(N)(=O)=O)cc2)N1C(=O)CCl` (some centres unmarked) [Example 123] were, in that order, 5.33 and 5.27.
In the case of `COC(=O)C1CCC([C@H]2c3[nH]c4ccccc4c3C[C@H](C(=O)N(C)C)N2C(=O)CCl)CC1` (some centres unmarked) [Example 41], the pIC50 in the assay with MiaPaCa-2 and with MCF-10A was 7.40 each time.
As for `C#CC(=O)N1[C@@H](c2ccc(S(=O)(=O)NC3CC3)cc2F)c2[nH]c3ccccc3c2C[C@@H]1C` [Example 174], the results for the pIC50 with SJSA-1 and with A431 were 7.04 and 5.52, respectively.
As for `CN(C)C(=O)[C@H]1Cc2c([nH]c3ccccc23)[C@H](c2ccc(S(C)(=O)=O)cc2)N1C(=O)CCl` [Example 59], the pIC50 with MiaPaCa-2 was 6.23; with MCF-10A, 5.06.
With `CCS(=O)(=O)N1CCN(c2ccc([C@H]3c4[nH]c5ccccc5c4C[C@H](C)N3C(=O)CCl)cc2)CC1` [Example 209], the figures for the pIC50 in the assay with SJSA-1 and in the assay with A431 were 7.72 and 5.48, respectively.
Regarding `C[C@H]1Cc2c([nH]c3ccccc23)[C@H](c2cnn(C3CCOCC3)c2)N1C(=O)CCl` [Example 158], the figures for the pIC50 in the assay on SJSA-1 and in the assay on A431 were 5.85 and less than 5.00, respectively.
Take `COCCN(C(=O)c1ccc([C@H]2c3[nH]c4ccccc4c3C[C@H](C(=O)N(C)C)N2C(=O)CCl)cc1)C(C)(C)C` [Example 52]: the pIC50 is 6.61 in the assay with MiaPaCa-2, 6.74 in the assay with MCF-10A and 6.44 to 6.55 with A549.
